Assay results: ChEMBL document CHEMBL1914411, “Synthesis of lipophilic dimeric C-7/C-7-linked ciprofloxacin and C-6/C-6-linked levofloxacin derivatives. Versatile in vitro biological evaluations of monomeric and dimeric fluoroquinolone derivatives as potential antitumor, antibacterial or antimycobacterial agents” (Eur J Med Chem, 2011)
≈ marks a conversion by molar mass, not a printed value. Calls of active or inactive are those of the source. The rule behind the calls is not given here.

How the values were obtained:
Staphylococcus aureus [1] = test: Antimicrobial activity against Staphylococcus aureus CIP 4.83 after 18 to 24 hrs by broth microdilution method; assay type: functional
Enterococcus hirae = test: Antimicrobial activity against Enterococcus hirae CIP 5855 after 18 to 24 hrs by broth microdilution method; assay type: functional
Pseudomonas aeruginosa = test: Antimicrobial activity against Pseudomonas aeruginosa CIP 82.118 after 18 to 24 hrs by broth microdilution method; assay type: functional
Escherichia coli = test: Antimicrobial activity against Escherichia coli CIP 53126 after 18 to 24 hrs by broth microdilution method; assay type: functional
Staphylococcus aureus [2] = test: Antimicrobial activity against methicillin-resistant Staphylococcus aureus ATCC 33591 after 18 to 24 hrs by broth microdilution method; assay type: functional
Staphylococcus aureus [3] = test: Antimicrobial activity against methicillin-resistant Staphylococcus aureus ATCC 33592 after 18 to 24 hrs by broth microdilution method; assay type: functional
Staphylococcus aureus [4] = test: Antimicrobial activity against multidrug-resistant Staphylococcus aureus isolate 1 after 18 to 24 hrs by broth microdilution method; assay type: functional
Staphylococcus aureus [5] = test: Antimicrobial activity against multidrug-resistant Staphylococcus aureus isolate 2 after 18 to 24 hrs by broth microdilution method; assay type: functional
[6] = tested on: Mycobacterium tuberculosis; test: Antimycobacterial activity against Mycobacterium tuberculosis H37Rv assessed as growth inhibition at 0.1 uM after 6 days by MTT colorimetric microassay; assay type: functional, organism-based

Compound | MBC (Staphylococcus aureus [1]) [µM] | MIC (Staphylococcus aureus [1]) [µM] | MBC (Enterococcus hirae) [µM] | MIC (Enterococcus hirae) [µM] | MBC (Pseudomonas aeruginosa) [µM] | MIC (Pseudomonas aeruginosa) [µM] | MBC (Escherichia coli) [µM] | MIC (Escherichia coli) [µM] | MBC (Staphylococcus aureus [2]) [µM] | MIC (Staphylococcus aureus [2]) [µM] | MBC (Staphylococcus aureus [3]) [µM] | MIC (Staphylococcus aureus [3]) [µM] | MBC (Staphylococcus aureus [4]) [µM] | MIC (Staphylococcus aureus [4]) [µM] | MBC (Staphylococcus aureus [5]) [µM] | MIC (Staphylococcus aureus [5]) [µM] | growth inhibition (GI) [6]
CCC(=O)N1CCN(c2cc3c(cc2F)c(=O)c(C(=O)O)cn3C2CC2)CC1 | ≤ 0.97 | ≤ 0.48 | 3.9 (≈ 1.51 µg/mL) | 3.9 (≈ 1.51 µg/mL) | 250 (≈ 96.9 µg/mL) | 31.2 (≈ 12.1 µg/mL) | 500 (≈ 194 µg/mL) | 3.9 (≈ 1.51 µg/mL) | 0.97 (≈ 0.376 µg/mL) | 0.48 (≈ 0.186 µg/mL) | 0.48 (≈ 0.186 µg/mL) | 0.24 (≈ 0.093 µg/mL) | 500 (≈ 194 µg/mL) | 62.5 (≈ 24.2 µg/mL) | 31.2 (≈ 12.1 µg/mL) | 31.2 (≈ 12.1 µg/mL) | inactive
O=C(O)c1cn(C2CC2)c2cc(N3CCN(C(=O)Cc4ccccc4)CC3)c(F)cc2c1=O | ≤ 0.24 | ≤ 0.12 | 7.8 (≈ 3.51 µg/mL) | 3.9 (≈ 1.75 µg/mL) | 250 (≈ 112 µg/mL) | 62.5 (≈ 28.1 µg/mL) | 7.8 (≈ 3.51 µg/mL) | 3.9 (≈ 1.75 µg/mL) | 0.24 (≈ 0.108 µg/mL) | 0.12 (≈ 0.0539 µg/mL) | 0.24 (≈ 0.108 µg/mL) | 0.12 (≈ 0.0539 µg/mL) | 62.5 (≈ 28.1 µg/mL) | 31.2 (≈ 14 µg/mL) | 15.6 (≈ 7.01 µg/mL) | 15.6 (≈ 7.01 µg/mL) | inactive
O=C(CCCCCCCCCCCCCCC(=O)OCN1CCN(c2cc3c(cc2F)c(=O)c(C(=O)O)cn3C2CC2)CC1)OCN1CCN(c2cc3c(cc2F)c(=O)c(C(=O)O)cn3C2CC2)CC1 | ≤ 0.97 | ≤ 0.97 | 62.5 (≈ 60.8 µg/mL) | 31.2 (≈ 30.4 µg/mL) | 250 (≈ 243 µg/mL) | 62.5 (≈ 60.8 µg/mL) | 15.6 (≈ 15.2 µg/mL) | 7.8 (≈ 7.59 µg/mL) | 15.6 (≈ 15.2 µg/mL) | 7.8 (≈ 7.59 µg/mL) | 1.9 (≈ 1.85 µg/mL) | 0.97 (≈ 0.944 µg/mL) | 500 (≈ 487 µg/mL) | 125 (≈ 122 µg/mL) | 500 (≈ 487 µg/mL) | 125 (≈ 122 µg/mL) | inactive
O=C(O)c1cn(C2CC2)c2cc(N3CCN(C(=O)CCl)CC3)c(F)cc2c1=O | ≤ 0.97 | ≤ 0.97 | 3.9 (≈ 1.59 µg/mL) | 3.9 (≈ 1.59 µg/mL) | 250 (≈ 102 µg/mL) | 31.2 (≈ 12.7 µg/mL) | ≤ 0.97 | ≤ 0.97 | – | – | – | – | – | – | – | – | inactive
CCCC(=O)N1CCN(c2cc3c(cc2F)c(=O)c(C(=O)O)cn3C2CC2)CC1 | ≤ 0.48 | ≤ 0.48 | 7.8 (≈ 3.13 µg/mL) | 7.8 (≈ 3.13 µg/mL) | 250 (≈ 100 µg/mL) | 62.5 (≈ 25.1 µg/mL) | 7.8 (≈ 3.13 µg/mL) | 7.8 (≈ 3.13 µg/mL) | 0.48 (≈ 0.193 µg/mL) | 0.48 (≈ 0.193 µg/mL) | 0.48 (≈ 0.193 µg/mL) | 0.24 (≈ 0.0963 µg/mL) | 62.5 (≈ 25.1 µg/mL) | 31.2 (≈ 12.5 µg/mL) | 62.5 (≈ 25.1 µg/mL) | 31.2 (≈ 12.5 µg/mL) | inactive
CCCCCCCCCCCCCCCC(=O)OCC(=O)N1CCN(c2cc3c(cc2F)c(=O)c(C(=O)O)cn3C2CC2)CC1 | 500 (≈ 314 µg/mL) | 62.5 (≈ 39.2 µg/mL) | 500 (≈ 314 µg/mL) | 125 (≈ 78.5 µg/mL) | 250 (≈ 157 µg/mL) | 125 (≈ 78.5 µg/mL) | 500 (≈ 314 µg/mL) | 125 (≈ 78.5 µg/mL) | – | – | – | – | – | – | – | – | inactive
CC(C)(C)C(=O)N1CCN(c2cc3c(cc2F)c(=O)c(C(=O)O)cn3C2CC2)CC1 | ≤ 0.97 | ≤ 0.48 | 7.8 (≈ 3.24 µg/mL) | 7.8 (≈ 3.24 µg/mL) | 250 (≈ 104 µg/mL) | 62.5 (≈ 26 µg/mL) | 31.2 (≈ 13 µg/mL) | 15.6 (≈ 6.48 µg/mL) | 0.48 (≈ 0.199 µg/mL) | 0.48 (≈ 0.199 µg/mL) | 0.48 (≈ 0.199 µg/mL) | 0.24 (≈ 0.0997 µg/mL) | 500 (≈ 208 µg/mL) | 31.2 (≈ 13 µg/mL) | 31.2 (≈ 13 µg/mL) | 31.2 (≈ 13 µg/mL) | inactive
CC(=O)N1CCN(c2cc3c(cc2F)c(=O)c(C(=O)O)cn3C2CC2)CC1 | 1.9 (≈ 0.709 µg/mL) | ≤ 0.48 | 7.8 (≈ 2.91 µg/mL) | 7.8 (≈ 2.91 µg/mL) | 31.2 (≈ 11.6 µg/mL) | 31.2 (≈ 11.6 µg/mL) | 1.9 (≈ 0.709 µg/mL) | 1.9 (≈ 0.709 µg/mL) | 0.97 (≈ 0.362 µg/mL) | 0.97 (≈ 0.362 µg/mL) | 0.97 (≈ 0.362 µg/mL) | 0.48 (≈ 0.179 µg/mL) | 500 (≈ 187 µg/mL) | 62.5 (≈ 23.3 µg/mL) | 62.5 (≈ 23.3 µg/mL) | 31.2 (≈ 11.6 µg/mL) | inactive
O=C(O)c1cn(C2CC2)c2cc(N3CCN(C(=O)CO)CC3)c(F)cc2c1=O | 1.9 (≈ 0.74 µg/mL) | ≤ 0.97 | 7.8 (≈ 3.04 µg/mL) | 7.8 (≈ 3.04 µg/mL) | 250 (≈ 97.3 µg/mL) | 15.6 (≈ 6.07 µg/mL) | 1.9 (≈ 0.74 µg/mL) | ≤ 0.97 | 1.9 (≈ 0.74 µg/mL) | 0.97 (≈ 0.378 µg/mL) | 1.9 (≈ 0.74 µg/mL) | 0.24 (≈ 0.0935 µg/mL) | > 500 | 125 (≈ 48.7 µg/mL) | 62.5 (≈ 24.3 µg/mL) | 62.5 (≈ 24.3 µg/mL) | inactive
CC(C)(C)OC(=O)N1CCN(c2cc3c(cc2F)c(=O)c(C(=O)O)cn3C2CC2)CC1 | ≤ 0.24 | ≤ 0.12 | 15.6 (≈ 6.73 µg/mL) | 15.6 (≈ 6.73 µg/mL) | 250 (≈ 108 µg/mL) | 15.6 (≈ 6.73 µg/mL) | 1.9 (≈ 0.82 µg/mL) | 1.9 (≈ 0.82 µg/mL) | 0.48 (≈ 0.207 µg/mL) | 0.06 (≈ 0.0259 µg/mL) | 0.48 (≈ 0.207 µg/mL) | 0.12 (≈ 0.0518 µg/mL) | 500 (≈ 216 µg/mL) | 31.2 (≈ 13.5 µg/mL) | 31.2 (≈ 13.5 µg/mL) | 15.6 (≈ 6.73 µg/mL) | inactive
CCCCCCNC(=O)c1cn2c3c(c(N4CCN(C)CC4)c(F)cc3c1=O)OC[C@@H]2C | 250 (≈ 111 µg/mL) | 250 (≈ 111 µg/mL) | 250 (≈ 111 µg/mL) | 125 (≈ 55.6 µg/mL) | 250 (≈ 111 µg/mL) | 62.5 (≈ 27.8 µg/mL) | 500 (≈ 222 µg/mL) | 125 (≈ 55.6 µg/mL) | – | – | – | – | – | – | – | – | inactive
